Experimental data reported in US20050279350A1, “Methods and apparatus for relieving headaches, rhinitis and other common ailments” (priority 1999, published 2005).
Like-named read-outs stand apart in the source and are kept apart here. Marks after values point to notes of the source that are not given here.

Test system: human subjects with allergies (allergic rhinitis)
Type: in vivo
Settings: for 24-hr. Recur Rate / After Effects / Symptom Free, Minutes Post-Treatment / Symptom, Relief, Minutes Post-Treatment: moderate, severe; for Est. Rate / Est. Total Dose / Number of Doses / Single Dose Duration / Total Dose / Total Treatment Time: self-selected effective dose
Description: The test device was a hand-held, multi-dose, disposable, dispenser that was approximately 3 to 4 inches long and 6/8 to ⅞ inches in diameter constructed as described above. The device consisted of a plastic twist-top flow regulator mounted on top of a pressurized steel cartridge containing liquid carbon dioxide. The tip of the flow regulator has a nosepiece that is the optimal size and configuration to place against and seal off a nostril for administration of the gas. In a number of subjects, the effective nasal and oral carbon dioxide flow rates, and maximum tolerable nasal and oral flow rates, were measured using a laboratory apparatus. This apparatus consisted of a flow regulator connected via tubing to a flow meter and a large tank of carbon dioxide. These flow data were used, together with the number of seconds gas was administered during therapy, to calculate the estimated dose of gas in milliliters.
Of the total of 15 subjects included in the analysis, 11 used the treatment for 35 headaches and 9 subjects used it for 9 allergy attacks. […] subjects treated both headache and allergy but on different days. The subjects included adults, elderly, and children of both sexes in good general health, having mild, moderate, and severe headaches or having allergies to plant, animal, or airborne allergens. The device was used to treat migraine and tension-type headaches, jaw pain, and allergies (allergic rhinitis, with symptoms that included sinus congestion, sneezing, and itchy throat and eyes). There was no limitation on the duration of symptoms before treatment with the device. Subjects with no prior use of the device and those who have used it (to treat allergy symptoms) previously were included.
Carbon dioxide (100%) was administered nasally by the subject for a few seconds via a nostril to fill the nasal passages while holding their breath, or taking breaths of room air occasionally if the dose was lengthy. The gas exited the other nostril. Such nasal administration is similar to presently marketed nasal inhalers except that the administered gas was not inhaled. […] Subjects took as many doses as they needed for relief. It is important to note that there were no number of doses, duration of dose, time between doses, or gas flow rate specified for the user. Subjects chose their own regimen for symptom relief. Similarly, in medical practice today, gas therapy is a “titrate to effect” therapy without a specified dosage.
For allergy, the rating of the intensity level depends on the extent to which the allergy interferes with the ability to function. […] The same outcome measures as for headache were used for allergy.

[1] = Allergy (N = 8), more stringent outcome measure definitions
[2] = Allergy (N = 8), more stringent outcome measure definitions, 1 min post-treatment
[3] = Allergy (N = 8), more stringent outcome measure definitions, 5 min post-treatment
[4] = Allergy (N = 8), more stringent outcome measure definitions, 15 min post-treatment
[5] = Allergy (N = 8), more stringent outcome measure definitions, 30 min post-treatment
[6] = Allergy (N = 9), mild, 1 min post-treatment
[7] = Allergy (N = 9), mild, 5 min post-treatment
[8] = Allergy (N = 9), mild, 15 min post-treatment
[9] = Allergy (N = 9), mild, 30 min post-treatment

O=C=O [carbon dioxide]
24-hr. Recur Rate [1]: 50%
After Effects [1]: 0%
Symptom Free, Minutes Post-Treatment [2]: 25%
Symptom, Relief, Minutes Post-Treatment [2]: 25%
Symptom Free, Minutes Post-Treatment [3]: 63%
Symptom, Relief, Minutes Post-Treatment [3]: 75%
Symptom Free, Minutes Post-Treatment [4]: 88%
Symptom, Relief, Minutes Post-Treatment [4]: 100%
Symptom Free, Minutes Post-Treatment [5]: 88%
Symptom, Relief, Minutes Post-Treatment [5]: 100%
After Effects (Allergy (N = 9), mild): 0%
Symptom Free, Minutes Post-Treatment [6]: 33%
Symptom, Relief, Minutes Post-Treatment [6]: 33%
Symptom Free, Minutes Post-Treatment [7]: 67%
Symptom, Relief, Minutes Post-Treatment [7]: 78%
Symptom Free, Minutes Post-Treatment [8]: 89%
Symptom, Relief, Minutes Post-Treatment [8]: 100%
Symptom Free, Minutes Post-Treatment [9]: 89%
Symptom, Relief, Minutes Post-Treatment [9]: 100%
24-hr. Recur Rate (Allergy (N = 9), mild, N=4 for this determination): 50%
Est. Rate (Allergy-All): 3 mL/s
Est. Total Dose (Allergy-All): 133 mL
Number of Doses (Allergy-All): 2 #
Single Dose Duration (Allergy-All): 13 s
Total Dose (Allergy-All): 39 s
Total Treatment Time (Allergy-All): 5 min
Est. Rate (Allergy-Mild): 5 mL/s
Est. Total Dose (Allergy-Mild): 200 mL
Number of Doses (Allergy-Mild): 2 #
Single Dose Duration (Allergy-Mild): 15 s
Total Dose (Allergy-Mild): 40 s
Total Treatment Time (Allergy-Mild): >0.7 min
Est. Rate (Allergy-Moderate): 2 mL/s
Est. Total Dose (Allergy-Moderate): 31 mL
Number of Doses (Allergy-Moderate): 2 #
Single Dose Duration (Allergy-Moderate): 3 s
Total Dose (Allergy-Moderate): 16 s
Total Treatment Time (Allergy-Moderate): >0.2 min
Est. Rate (Allergy-Severe): 4 mL/s
Est. Total Dose (Allergy-Severe): 156 mL
Number of Doses (Allergy-Severe): 2 #
Single Dose Duration (Allergy-Severe): 17 s
Total Dose (Allergy-Severe): 46 s
Total Treatment Time (Allergy-Severe): >3.9 min
efficacy (allergic rhinitis, occurring in seconds to minutes): 88-100%
adverse after effects of treatment (allergy subjects): No subjects reported any adverse after effects
onset of symptom relief (allergy, while administering the first dose): immediate onset of symptom relief within seconds
oral versus nasal administration (oral administration via pursed lips, allergic inflammation extending into the oral cavity): more effective
time of recurrence of allergy symptoms post-treatment (recurrences): ≥ 3 h
